Like-named read-outs stand apart in the source and are kept apart here.
Key:
[1] = tested on: C57BL/6 mice, permanent occlusion of the MCA; assay: Permanent middle cerebral artery occlusion (pMCAO) in C57BL/6 mice: infarct volume and edema; format: in vivo; conditions: for Percent Reduction in Edema / inhibition in vivo at up to 20 mg/kg: C57BL/6 mice pMCAO, 20-60 mg/kg i.v., compound given 0 hr; for inhibition in vivo at up to 20 mg/kg / inhibition in vivo at 60 mg/kg: Mus musculus, iv, read-out: Percent Reduction in Infarct Volume; for inhibition in vivo at up to 20 mg/kg: 24 h, 24 hours after MCA occlusion; for inhibition in vivo at 60 mg/kg: C57BL/6 pMCAO
Procedure, shortened: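 Male mice (25-35 g) under avertin anaesthesia had the distal MCA coagulated through a craniotomy; compound given as single i.v. bolus (20-60 mg/kg, 6 ml/kg in 5% dextrose with equimolar meglumine or NaOH) before or up to 8 h after occlusion.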

erythropoietin (EPO) [2] = assay: EPO expression in Hep3B cells (QUANTIKINE immunoassay of conditioned media); format: cell-based, Human; conditions: for Fold Increase Over Control: EPO, vs 1% DMSO control; for EPO: conditioned media after overnight incubation with compound
Procedure, shortened: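 Confluent Hep3B cells were switched to OPTI-MEM for about 24 h (20% O2, 5% CO2, 37 °C), then treated overnight with compound or 1% DMSO vehicle. EPO secreted into the conditioned medium was measured by QUANTIKINE immunoassay.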

erythropoietin (EPO) [3] = assay: EPO expression in Kelly neuroblastoma cells; format: cell-based; conditions: for EPO: conditioned media after overnight incubation
Procedure, shortened: (§1)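 Kelly neuroblastoma cells treated overnight with compound, 1% DMSO as negative control. EPO and VEGF secreted into conditioned media measured by QUANTIKINE immunoassay.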

[4] = tested on: vascular endothelial growth factor (VEGF); assay: VEGF expression in Kelly neuroblastoma cells; format: cell-based; conditions: for VEGF: conditioned media after overnight incubation
Procedure, shortened: as §1

VEGF = assay: Plasma VEGF in mice after intravenous injection; format: in vivo, Swiss Webster mice; conditions: mouse plasma, 20 mg/kg i.v., four hours after injection; for fold induction at 20 mg/kg: iv, 4 h, read-out: VEGF Fold Increase
Procedure, shortened: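 Male Swiss Webster mice (29-34 g) received 20 mg/kg compound or vehicle by tail-vein injection in 5% dextrose with equimolar NaOH or meglumine. Plasma was collected 4 h later, and EPO and VEGF were measured by ELISA.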

In the case of N#Cc1nc(C(=O)NCC(=O)O)c(O)c2c(Oc3ccc(F)cc3)cccc12 [Compound AS, {[1-Cyano-5-(4-fluoro-phenoxy)-4-hydroxy-isoquinoline-3-carbonyl]-amino}-acetic acid], the “Percent Reduction in Edema” value [1] is reported as 54%, the inhibition in vivo at up to 20 mg/kg [1] is reported as 50% and the “Fold Increase Over Control” value (erythropoietin (EPO) [2]) is reported as 10.7. For the same compound, the EPO (erythropoietin (EPO) [2]) was 40.5 mIU/ml, the “EPO Fold Increase” value (erythropoietin (EPO) [3]) was 11.72 and the EPO (erythropoietin (EPO) [3]) was 221.5 mIU/ml. The “VEGF Fold Increase” value [4] was 5.6, the VEGF [4] was 8197 pg/mL and the fold induction at 20 mg/kg (VEGF) was 0.57. The VEGF (VEGF) was 20 pg/mL.

With Cc1cccc(C)c1Oc1ccc2c(C#N)nc(C(=O)NCC(=O)O)c(O)c2c1 [Compound AL, {[1-Cyano-6-(2,6-dimethyl-phenoxy)-4-hydroxy-isoquinoline-3-carbonyl]-amino}-acetic acid] the “Percent Reduction in Edema” value [1] was 73%, the inhibition in vivo at up to 20 mg/kg [1] was 43% and the “Fold Increase Over Control” value (erythropoietin (EPO) [2]) was 13.9. For the same compound, the EPO (erythropoietin (EPO) [2]) was 74.8 mIU/ml, the “EPO Fold Increase” value (erythropoietin (EPO) [3]) was 11.31 and the EPO (erythropoietin (EPO) [3]) was 213.8 mIU/ml. The “VEGF Fold Increase” value [4] was 3.8, the VEGF [4] was 5499 pg/mL and the fold induction at 20 mg/kg (VEGF) was 2.06. It also gave a VEGF (VEGF) of 130 pg/mL.

With COc1ccc(Oc2ccc3c(O)c(C(=O)NCC(=O)O)ncc3c2)cc1 [Compound F, {[4-Hydroxy-7-(4-methoxy-phenoxy)-isoquinoline-3-carbonyl]-amino}-acetic acid] the “Percent Reduction in Edema” value [1] was 47%, the inhibition in vivo at 60 mg/kg ([1]; 0 h, 60 mg/kg single i.v. bolus (Meglumine vehicle), 0 hr after MCA occlusion) was 43% and the inhibition in vivo at 60 mg/kg ([1]; 0 h, 60 mg/kg single i.v. bolus (NaOH vehicle), 0 hr after MCA occlusion) was 50%. For the same compound, the inhibition in vivo at 60 mg/kg ([1]; 1 h, 60 mg/kg single i.v. bolus (NaOH vehicle), 1 hr after MCA occlusion) was 62%, the inhibition in vivo at 60 mg/kg ([1]; 3 h, 60 mg/kg single i.v. bolus (NaOH vehicle), 3 hr after MCA occlusion) was 53% and the inhibition in vivo at 60 mg/kg ([1]; 4 h, 60 mg/kg single i.v. bolus (Meglumine vehicle), 4 hr after MCA occlusion) was 36%. The inhibition in vivo at 60 mg/kg ([1]; 5 h, 60 mg/kg single i.v. bolus (NaOH vehicle), 5 hr after MCA occlusion) was 55%, the inhibition in vivo at 60 mg/kg ([1]; 6 h, 60 mg/kg single i.v. bolus (Meglumine vehicle), 6 hr after MCA occlusion) was 15% and the inhibition in vivo at 60 mg/kg ([1]; 8 h, 60 mg/kg single i.v. bolus (Meglumine vehicle), 8 hr after MCA occlusion) was 8%. For the same compound, the inhibition in vivo at up to 20 mg/kg [1] was 68%, the “Fold Increase Over Control” value (erythropoietin (EPO) [2]) was 3.0 and the EPO (erythropoietin (EPO) [2]) was 369.4 mIU/ml. The “EPO Fold Increase” value (erythropoietin (EPO) [3]) was 10.5, the EPO (erythropoietin (EPO) [3]) was 65 mIU/ml and the “VEGF Fold Increase” value [4] was 16.2. For the same compound, the VEGF [4] was 2564.9 pg/mL, the fold induction at 20 mg/kg (VEGF) was 2.21 and the VEGF (VEGF) was 64 pg/mL.
